Laboratory results: patent publication US20260008818A1, “CYCLIC PEPTIDE OR SALT THEREOF, AND USES THEREOF” (FUJIFILM Corporation, priority 2023, published 2026)
Ends that are not written are not given here.

Legend:
[1] = test system: BaF3 cells stably expressing FGFR (bovine); assay: Cell proliferation-promoting effect on BaF3 cells stably expressing bovine FGFR; type: cell-based; conditions: BaF3 with bovine FGFR; viable cells at the addition concentration (0.001 to 10 nmol/L) with largest number; 2 nights
Method: (§1) The FGFR phosphorylation ability of the cyclic peptide complex was evaluated using the BaF3 cell proliferation-promoting effect in which FGFR was stably expressed.
(§2) BaF3 cells stably expressing FGFR were established by introducing a vector (human: Gene Copocia, EX-Y2820-M67, bovine: sequence of Accession No. A4IFL5 was introduced into pCDNA3.1/Hygro(+) Mammalian Expression Vector (Thermo, V87020), porcine: sequence of Accession No. A0A8DIE4H1 was introduced into pCDNA3.1/Hygro(+) Mammalian Expression Vector (Thermo, V87020), and avian: sequence of Accession No. P21804 was introduced into pCDNA3.1/Hygro(+) Mammalian Expression Vector (Thermo, V87020)) into which FGFR gene had been incorporated, into BaF3 cells using NucleoFector (Lonza) and performing drug selection of cells into which the FGFR gene had been introduced using hygromycin.
(§3) The evaluation of the proliferation-promoting effect of BaF3 cells in which FGFR is stably expressed was performed by the following method. First, RPMI-1640 with L-Glutamine and Phenol Red (FUJIFILM Wako Pure Chemical Corporation, 189-02025) and Fetal Bovine Serum (Thermo, 10270-106) were mixed at a volume ratio of 9:1, and then heparin (STEM CELL, 07980) was added thereto such that the final concentration thereof was 8 μg/mL, thereby preparing a culture medium for evaluation (hereinafter, described as RPMI (10% FBS) medium). Next, the BaF3 cells in which FGFR had been stably expressed were washed twice with RPMI (10% FBS) culture medium, suspended in RPMI (10% FBS) culture medium in which the cyclic peptide complex had been dissolved to a final concentration of 0.001 to 10 nmol/L, and seeded in a 384-well plate. In this case, a condition in which the cyclic peptide complex was not added as a negative control was prepared. After culturing at 37° C. (5% CO2) for 2 nights, Hoechst 33342, Trihydrochloride, Trihydrate—10 mg/mL Solution in Water (Thermo, H3570), -Cellstain (registered trademark)-Calcein-AM solution (1 mg/mL DMSO solution) (DOJINDO, C396), and -Cellstain (registered trademark)-PI solution (DOJINDO, P378) were each added to RPMI (10% FBS) culture medium in a volume amount of 1/1,000 at the final concentration, and live/dead staining of the cells were performed by allowing to stand at room temperature for 1 hour, and imaging was performed using a confocal microscope (Yokogawa Electric Corporation, CQ1). The number of viable cells was calculated from the imaging data, and the cell proliferation-promoting effect was evaluated according to the following evaluation criteria. The number of viable cells in the negative control was about 20 cells/well. The evaluation result preferably satisfies the evaluation criteria A, B, or C. […]

[2] = test system: BaF3 cells stably expressing FGFR (avian); assay: Cell proliferation-promoting effect on BaF3 cells stably expressing avian FGFR; type: cell-based; conditions: BaF3 with avian FGFR; viable cells at the addition concentration (0.001 to 10 nmol/L) with largest number; 2 nights
Method: as §1, §2, §3

[3] = test system: BaF3 cells stably expressing FGFR (human); assay: Cell proliferation-promoting effect on BaF3 cells stably expressing human FGFR; type: cell-based; conditions: BaF3 with human FGFR; viable cells at the addition concentration (0.001 to 10 nmol/L) with largest number; 2 nights
Method: as §1, §2, §3

[4] = test system: BaF3 cells stably expressing FGFR (porcine); assay: Cell proliferation-promoting effect on BaF3 cells stably expressing porcine FGFR; type: cell-based; conditions: BaF3 with porcine FGFR; viable cells at the addition concentration (0.001 to 10 nmol/L) with largest number; 2 nights
Method: as §1, §2, §3

[5] = test system: hMSC-Human Mesenchymal Stem Cells; assay: Effect of maintaining MSC undifferentiated potency (gene expression); type: cell-based
Method: The effect of maintaining mesenchymal stem cell (MSC) undifferentiated potency of the cyclic peptide complex was evaluated.
MSC was prepared in the same manner as in Example 7.
The evaluation of the effect of maintaining the MSC undifferentiated potency was performed by the following method. First, a culture medium (hereinafter, referred to as a custom culture medium) in which bFGF was removed from PRIME-XV MSC Expansion XSFM (FUJIFILM Irvine Scientific, Inc., 91149) was prepared. Next, Prime-XV Human Fibronectin (FUJIFILM Irvine Scientific, Inc., 31002) was dissolved in PBS (Fujifilm Wako Pure Chemical Corporation, 164-23551), 2 μg/cm^2 of the solution was added to a 12-well plate used for proliferation, and the 12-well plate was allowed to stand at room temperature for 3 hours to coat the 12-well plate with fibronectin. Thereafter, the MSCs subjected to the subculture were peeled using Tryple Express (Thermo, 12604-013), washed once with a custom culture medium, suspended in a custom culture medium in which a cyclic peptide complex or bFGF (R&D Systems, 3718-GMP) was diluted to final concentrations of 3 nmol/L and 1 nmol/L, and seeded on a 12-well plate coated with fibronectin. In this case, conditions in which the cyclic peptide complex and bFGF were not added as a negative control were prepared. After culturing at 37° C. (5% CO2) for 2 nights, the culture medium was replaced by removing the supernatant of the culture medium and adding the same amount of a culture medium prepared to have the same composition as the removed culture medium. After further culturing at 37° C. (5% CO2) for 2 nights, RNA was extracted using an RNeasy Plus Mini Kit (Qiagen, 74136) according to the manufacturer's protocol. […] The expression level of each gene was normalized by setting the expression level of the well to which 1 nmol/L bFGF was added to 1.

[6] = Stability of cyclic peptide after alkali treatment, LC; type: physicochemical; conditions: alkali treatment: 0.5 mol/L sodium hydroxide aqueous solution, room temperature, 3 hours
Method: In addition, the stability of the cyclic peptide (SEQ ID NO: 382) containing a cysteine residue in the cyclized portion and the cyclic peptide (SEQ ID NO: 374) containing a homocysteine residue in the cyclized portion was compared under the following alkali treatment, which is a more severe condition.
The alkali treatment was performed by the following method. 25 μL of a 0.2 mg/mL cyclic peptide aqueous solution was prepared, 58.8 μL of a 0.5 mol/L sodium hydroxide aqueous solution was added to the aqueous solution, and the mixture was incubated at room temperature for 3 hours to obtain an aqueous solution of the cyclic peptide alkali-treated. The total area of all the peaks in LC/MS of the cyclic peptide before the alkali treatment was set to 100%, and the proportion of the total area of all the peaks in LC/MS of the aqueous solution of the cyclic peptide alkali-treated was determined to calculate the residual rate of the cyclic peptide.
The LC conditions used for the evaluation of molecular stability are the same as those in the measurement of the above-described cyclic peptide treated with a reducing agent.

[7] = 1 nmol/L bFGF versus condition without bFGF (negative control)

| Substance | Evaluation result of cell proliferative properties Bovine [1] | Evaluation result of cell proliferative properties Avian [2] | Evaluation result of cell proliferative properties Human [3] | Evaluation result of cell proliferative properties Porcine [4] | expression level of Nanog [5, 7] | expression level of Oct4 [5, 7] | expression level of Sox2 ([5]; cyclic peptide complex 3 nmol/L or bFGF 1 nmol/L, normalized to 1 nmol/L bFGF = 1, bFGF compared with negative control) | residual rate of the cyclic peptide [6] |
| --- | --- | --- | --- | --- | --- | --- | --- | --- |
| 391 (HCSYERLQFHGHEAPFRVKVGHCSYERLQFHGHEAPFRVKV; also: cyclic, closure not given here) [compound 391] | A (The number of viable cells is 400 cells/well or more.) | A (The number of viable cells is 400 cells/well or more.) | A (The number of viable cells is 400 cells/well or more.) | B (The number of viable cells is 200 cells/well or more and less than 400 cells/well.) | – | – | – | – |
| bFGF: basic fibroblast growth factor (R&D Systems, 3718-GMP) | – | – | – | – | did not change substantially | did not change substantially | changed | – |
| 396 (CSYERLQFHGHEAPFRVKVCSYERLQFHGHEAPFRVKV; also: cyclic peptide) [compound 396] | A (The number of viable cells is 400 cells/well or more.) | A (The number of viable cells is 400 cells/well or more.) | A (The number of viable cells is 400 cells/well or more.) | B (The number of viable cells is 200 cells/well or more and less than 400 cells/well.) | – | – | – | – |
| H-(C)-SYERLQFHGHEAPFRV-(K(acetyl))-VKKK [SEQ ID NO: 382] | – | – | – | – | – | – | – | 26% |
| H-(Hcy)-SYERLQFHGHEAPFRV-(K(acetyl))-VKKK [SEQ ID NO: 374] | – | – | – | – | – | – | – | 32% |
| 392 (HCSYERLQFHGHEAPFRVKVHCSYERLQFHGHEAPFRVKV; also: cyclic, closure not given here) [compound 392] | A (The number of viable cells is 400 cells/well or more.) | B (The number of viable cells is 200 cells/well or more and less than 400 cells/well.) | A (The number of viable cells is 400 cells/well or more.) | B (The number of viable cells is 200 cells/well or more and less than 400 cells/well.) | – | – | – | – |
| 395 (CSYERLQFHGHEAPFRVKVCSYERLQFHGHEAPFRVKV; also: cyclic, closure not given here) [compound 395] | A (The number of viable cells is 400 cells/well or more.) | B (The number of viable cells is 200 cells/well or more and less than 400 cells/well.) | B (The number of viable cells is 200 cells/well or more and less than 400 cells/well.) | B (The number of viable cells is 200 cells/well or more and less than 400 cells/well.) | – | – | – | – |
